Source: PubChem BioAssay (NCI)
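Five concentrations, 48 hours, 96-well plates. Here, GI50 denotes the concentration required for 50% inhibition of growth. TGI: concentration producing complete growth inhibition.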

How the values were obtained:
Assay in all cases: inhibition of tumour cell growth, NCI panel, 48 h
BT-549 breast = system: BT-549 breast
SK-MEL-28 melanoma = system: SK-MEL-28 melanoma
TK-10 renal = system: TK-10 renal
HT29 colon = system: HT29 colon
CCRF-CEM leukemia = system: CCRF-CEM leukemia
K-562 leukemia = system: K-562 leukemia
ACHN renal = system: ACHN renal
EKVX NSCLC = system: EKVX NSCLC
M14 melanoma = system: M14 melanoma
HCT-15 colon = system: HCT-15 colon
A549 NSCLC = system: A549 NSCLC
COLO 205 colon = system: COLO 205 colon
RPMI-8226 leukemia = system: RPMI-8226 leukemia
RXF 393 renal = system: RXF 393 renal
NCI-H226 lung = system: NCI-H226 lung
OVCAR-8 ovarian = system: OVCAR-8 ovarian
SF-539 CNS = system: SF-539 CNS
SF-295 CNS = system: SF-295 CNS
OVCAR-5 ovarian = system: OVCAR-5 ovarian
SK-OV-3 ovarian = system: SK-OV-3 ovarian
HOP-62 NSCLC = system: HOP-62 NSCLC
T-47D breast = system: T-47D breast
OVCAR-4 ovarian = system: OVCAR-4 ovarian
UO-31 renal = system: UO-31 renal
NCI-H23 lung = system: NCI-H23 lung
A498 renal = system: A498 renal
HS 578T breast = system: HS 578T breast
SNB-75 CNS = system: SNB-75 CNS
786-0 renal = system: 786-0 renal
MCF7 breast = system: MCF7 breast
HL-60(TB) leukemia = system: HL-60(TB) leukemia
SF-268 CNS = system: SF-268 CNS
SR leukemia = system: SR leukemia
NCI-H522 lung = system: NCI-H522 lung
SK-MEL-2 melanoma = system: SK-MEL-2 melanoma
SK-MEL-5 melanoma = system: SK-MEL-5 melanoma
NCI/ADR-RES ovarian = system: NCI/ADR-RES ovarian
PC-3 prostate = system: PC-3 prostate
NCI-H460 lung = system: NCI-H460 lung
DU-145 prostate = system: DU-145 prostate
LOX IMVI melanoma = system: LOX IMVI melanoma
SNB-19 CNS = system: SNB-19 CNS
MOLT-4 leukemia = system: MOLT-4 leukemia
SN12C renal = system: SN12C renal
MDA-MB-435 = system: MDA-MB-435
OVCAR-3 ovarian = system: OVCAR-3 ovarian
UACC-62 melanoma = system: UACC-62 melanoma
HCC-2998 colon = system: HCC-2998 colon
IGROV1 ovarian = system: IGROV1 ovarian
HOP-92 NSCLC = system: HOP-92 NSCLC
UACC-257 melanoma = system: UACC-257 melanoma
HCT-116 colon = system: HCT-116 colon
SW-620 colon = system: SW-620 colon
CAKI-1 renal = system: CAKI-1 renal
U251 CNS = system: U251 CNS
KM12 colon = system: KM12 colon
MDA-MB-231 breast = system: MDA-MB-231 breast

COc1cc(OC)cc(C2C(C#N)=C(N)Oc3c2ccc2ccc(O)cc32)c1 (stereo not given)
GI50 (BT-549 breast): < 0.01 µM
TGI (BT-549 breast): 11.5 µM
GI50 (SK-MEL-28 melanoma): 2.27 µM
TGI (SK-MEL-28 melanoma): 9.97 µM
GI50 (TK-10 renal): 3.36 µM
TGI (TK-10 renal): 19.6 µM
GI50 (HT29 colon): 0.088 µM
TGI (HT29 colon): 5.83 µM
GI50 (CCRF-CEM leukemia): < 0.01 µM
TGI (CCRF-CEM leukemia): 14 µM
GI50 (K-562 leukemia): < 0.01 µM
TGI (K-562 leukemia): > 31.7 µM
GI50 (ACHN renal): < 0.01 µM
TGI (ACHN renal): 6.58 µM
GI50 (EKVX NSCLC): < 0.01 µM
TGI (EKVX NSCLC): 6.66 µM
GI50 (M14 melanoma): < 0.01 µM
TGI (M14 melanoma): 5.25 µM
GI50 (HCT-15 colon): < 0.01 µM
TGI (HCT-15 colon): 1.93 µM
GI50 (A549 NSCLC): < 0.01 µM
TGI (A549 NSCLC): 9.97 µM
GI50 (COLO 205 colon): 0.155 µM
TGI (COLO 205 colon): 1.03 µM
GI50 (RPMI-8226 leukemia): < 0.01 µM
TGI (RPMI-8226 leukemia): 3.28 µM
GI50 (RXF 393 renal): < 0.01 µM
TGI (RXF 393 renal): 4.49 µM
GI50 (NCI-H226 lung): < 0.01 µM
GI50 (OVCAR-8 ovarian): < 0.01 µM
TGI (OVCAR-8 ovarian): 8.29 µM
GI50 (SF-539 CNS): < 0.01 µM
TGI (SF-539 CNS): < 0.01 µM
GI50 (SF-295 CNS): < 0.01 µM
TGI (SF-295 CNS): 2.67 µM
GI50 (OVCAR-5 ovarian): 0.0521 µM
TGI (OVCAR-5 ovarian): 12 µM
GI50 (SK-OV-3 ovarian): < 0.01 µM
TGI (SK-OV-3 ovarian): 11.4 µM
GI50 (HOP-62 NSCLC): < 0.01 µM
TGI (HOP-62 NSCLC): 5.75 µM
GI50 (T-47D breast): 2.29 µM
TGI (T-47D breast): 22.8 µM
TGI (OVCAR-4 ovarian): 15.6 µM
GI50 (UO-31 renal): < 0.0112 µM
TGI (UO-31 renal): 6.62 µM
GI50 (NCI-H23 lung): < 0.01 µM
TGI (NCI-H23 lung): 4.74 µM
GI50 (A498 renal): < 0.01 µM
TGI (A498 renal): 2.64 µM
GI50 (HS 578T breast): < 0.01 µM
TGI (HS 578T breast): 9.95 µM
GI50 (SNB-75 CNS): < 0.01 µM
TGI (SNB-75 CNS): 6.54 µM
GI50 (786-0 renal): < 0.0125 µM
TGI (786-0 renal): 9.23 µM
GI50 (MCF7 breast): < 0.01 µM
TGI (MCF7 breast): 11.3 µM
GI50 (HL-60(TB) leukemia): < 0.01 µM
TGI (HL-60(TB) leukemia): < 0.01 µM
GI50 (SF-268 CNS): < 0.01 µM
TGI (SF-268 CNS): 6.87 µM
GI50 (SR leukemia): < 0.01 µM
TGI (SR leukemia): 27.1 µM
GI50 (NCI-H522 lung): < 0.01 µM
GI50 (SK-MEL-2 melanoma): 0.587 µM
TGI (SK-MEL-2 melanoma): 7.37 µM
GI50 (SK-MEL-5 melanoma): < 0.01 µM
TGI (SK-MEL-5 melanoma): < 0.01 µM
GI50 (NCI/ADR-RES ovarian): < 0.01 µM
GI50 (PC-3 prostate): < 0.01 µM
TGI (PC-3 prostate): 13.9 µM
GI50 (NCI-H460 lung): < 0.01 µM
TGI (NCI-H460 lung): 1.13 µM
GI50 (DU-145 prostate): < 0.01 µM
TGI (DU-145 prostate): 3.84 µM
GI50 (LOX IMVI melanoma): < 0.01 µM
TGI (LOX IMVI melanoma): 1.63 µM
GI50 (SNB-19 CNS): < 0.01 µM
TGI (SNB-19 CNS): 11.6 µM
GI50 (MOLT-4 leukemia): < 0.01 µM
TGI (MOLT-4 leukemia): 12.8 µM
GI50 (SN12C renal): < 0.01 µM
TGI (SN12C renal): 5.89 µM
GI50 (MDA-MB-435): < 0.01 µM
TGI (MDA-MB-435): < 0.01 µM
GI50 (OVCAR-3 ovarian): < 0.01 µM
TGI (OVCAR-3 ovarian): < 0.01 µM
GI50 (UACC-62 melanoma): 1.41 µM
TGI (UACC-62 melanoma): 4.42 µM
GI50 (HCC-2998 colon): < 0.0166 µM
TGI (HCC-2998 colon): 0.53 µM
GI50 (IGROV1 ovarian): < 0.01 µM
TGI (IGROV1 ovarian): 6.61 µM
GI50 (HOP-92 NSCLC): < 0.01 µM
TGI (HOP-92 NSCLC): 2.95 µM
GI50 (UACC-257 melanoma): 2.38 µM
TGI (UACC-257 melanoma): 32.5 µM
GI50 (HCT-116 colon): < 0.01 µM
TGI (HCT-116 colon): 3.88 µM
GI50 (SW-620 colon): < 0.01 µM
TGI (SW-620 colon): 14.4 µM
GI50 (CAKI-1 renal): < 0.01 µM
TGI (CAKI-1 renal): 6.08 µM
GI50 (U251 CNS): < 0.01 µM
TGI (U251 CNS): 1.89 µM
GI50 (KM12 colon): < 0.01 µM
TGI (KM12 colon): 1.34 µM
GI50 (MDA-MB-231 breast): < 0.01 µM
TGI (MDA-MB-231 breast): 5.14 µM
